In PubChem BioAssay (NCI):
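Values below derive from 48-hour exposures of cells grown in 96-well plates, with endpoints linearly interpolated between the two concentrations bracketing the appropriate inhibition level. GI50: concentration for 50% inhibition of growth. TGI: total growth inhibition.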

Experiments:
Test in all cases: NCI anticancer screen, dose series, 48 h
HCC-2998 colon = test system: HCC-2998 colon
HOP-62 NSCLC = test system: HOP-62 NSCLC
HT29 colon = test system: HT29 colon
MCF7 breast = test system: MCF7 breast
MOLT-4 leukemia = test system: MOLT-4 leukemia
PC-3 prostate = test system: PC-3 prostate
SK-MEL-28 melanoma = test system: SK-MEL-28 melanoma
SK-MEL-5 melanoma = test system: SK-MEL-5 melanoma
T-47D breast = test system: T-47D breast
U251 CNS = test system: U251 CNS

SMILES	GI50 (HCC-2998 colon)	TGI (HCC-2998 colon)	GI50 (HOP-62 NSCLC)	TGI (HOP-62 NSCLC)	GI50 (HT29 colon)	TGI (HT29 colon)	GI50 (MCF7 breast)	TGI (MCF7 breast)	GI50 (MOLT-4 leukemia)	TGI (MOLT-4 leukemia)	GI50 (PC-3 prostate)	TGI (PC-3 prostate)	GI50 (SK-MEL-28 melanoma)	TGI (SK-MEL-28 melanoma)	GI50 (SK-MEL-5 melanoma)	TGI (SK-MEL-5 melanoma)	GI50 (T-47D breast)	TGI (T-47D breast)	GI50 (U251 CNS)	TGI (U251 CNS)
CC(=O)O[C@H]([C@H](OC(C)=O)[C@H](C)OC(C)=O)[C@@H](/C=C/[C@@H]1CC=CC(=O)O1)OC(C)=O	29 µM	77.2 µM	57.6 µM	> 100 µM	72.1 µM	> 100 µM	33.5 µM	> 100 µM	> 100 µM	> 100 µM	13.9 µM	> 100 µM	40.4 µM	> 100 µM	44.5 µM	> 100 µM	27.4 µM	> 100 µM	> 100 µM	> 100 µM
C=C1C(=O)O[C@H]2[C@H]1CC/C(COC(=O)NCc1c[nH]c3ccccc13)=C\CC[C@@]1(C)O[C@@H]21	6.41 µM	19 µM	11.2 µM	23.7 µM	3.1 µM	9.69 µM	1.5 µM	4.39 µM	2.71 µM	9.13 µM	5.16 µM	18.9 µM	2.65 µM	8.99 µM	12.1 µM	25 µM	1.57 µM	4.11 µM	11.1 µM	23.1 µM
C[C@H]1/C(=C/C(=O)OCCN(C)C)CC[C@H]2[C@H]1C(=O)C[C@H]1C(C)(C)[C@@H](O)CC[C@]21C	–	> 100 µM	–	> 100 µM	–	> 100 µM	–	> 100 µM	–	> 100 µM	–	> 100 µM	–	> 100 µM	–	> 100 µM	–	> 100 µM	–	> 100 µM
Cc1ccc2oc(=O)cc(/C(=C3/C=CC=N3)c3ccc[nH]3)c2c1	1.15 µM	3.12 µM	0.533 µM	5.53 µM	0.349 µM	1.42 µM	0.348 µM	4.23 µM	0.378 µM	2.14 µM	0.274 µM	1.54 µM	0.611 µM	3.46 µM	0.356 µM	1.29 µM	0.445 µM	7.66 µM	0.319 µM	1.57 µM
CO[C@H]1C=CO[C@@]2(C)Oc3c(C)c(O)c4c(O)c(c(CN5CCN(C)CC5)c(O)c4c3C2=O)NC(=O)/C(C)=C\C=C[C@H](C)[C@H](O)C(C)[C@@H](O)C(C)[C@H](OC(C)=O)[C@@H]1C (some centres undefined)	–	> 100 µM	–	> 100 µM	–	> 100 µM	–	33.7 µM	–	49.1 µM	–	> 100 µM	–	> 100 µM	–	56.4 µM	–	> 100 µM	–	> 100 µM
COc1cc2c(c(OC)c1OC)-c1ccc(O)cc1[C@@H](NC(C)=O)CC2	0.0465 µM	> 100 µM	0.051 µM	> 100 µM	0.0339 µM	0.141 µM	0.0376 µM	> 100 µM	0.0578 µM	–	0.0456 µM	> 100 µM	0.0528 µM	> 100 µM	0.0412 µM	0.195 µM	0.0495 µM	> 100 µM	0.0465 µM	> 100 µM
NC(N)=NCC1CCCCCCN1 (centres undefined)	–	> 100 µM	–	> 100 µM	–	> 100 µM	–	> 100 µM	–	> 100 µM	–	> 100 µM	–	> 100 µM	–	> 100 µM	–	> 100 µM	–	> 100 µM
O=C(/C=C/c1ccc(Cl)cc1)c1ccccc(=O)c1O	–	8.29 µM	–	21.1 µM	–	10.8 µM	–	19.8 µM	–	16.2 µM	–	20 µM	–	26.4 µM	–	4.93 µM	–	19.8 µM	–	> 100 µM
